In this assay the target is 5-hydroxytryptamine receptor 1D (Bos taurus). The assay can be described thus: Affinity pKi for 5-hydroxytryptamine 1D receptor was measured in calf caudate homogenate.

In the case of `CCOC(=O)c1[nH]c2ccc(CCN3C(=O)CNC3=O)cc2c1CCN(C)C`, the Ki is 10 µM.

The values above are taken from BindingDB's records for doi:10.1021/jm9605849 (Monash University, 1997).
